This is an account of results in US11447504B2, “Macrocyclic chlorine substituted indole derivatives” (Bayer Aktiengesellschaft, priority 2017, dated 2022).

In one data set the target is BCL-XL (Homo sapiens (Human), UniProt Q07817). Briefly: Protein-protein interaction assay BCL-XL/Bad BH3 peptide (BCL-XL Assay, TR-FRET). The class given is binding. As to conditions: read-out: BCL-XL Assay IC50 (median). The procedure: Assay 2 Protein-Protein Interaction Assay: BCL-XL/Bad BH3 Peptide (BCL-XL Assay)
Sequence of BCL-XL (Q07817 other isoform, or with tags, fused parts or gaps): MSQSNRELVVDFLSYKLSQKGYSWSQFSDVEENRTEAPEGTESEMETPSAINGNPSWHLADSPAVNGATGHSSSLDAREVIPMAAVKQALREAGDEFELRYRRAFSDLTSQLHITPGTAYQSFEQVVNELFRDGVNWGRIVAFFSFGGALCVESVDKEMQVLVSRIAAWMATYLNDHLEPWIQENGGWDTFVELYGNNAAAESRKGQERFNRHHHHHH
The dose-dependent inhibition by the compounds described in this invention of the interaction between BCL-XL and the BH3 domain of Bad (both human) was determined using a steady state binding competition assay with time-resolved fluorescence energy transfer (TR-FRET) readout.
For that, 100-fold concentrated DMSO solutions were prepared by serial dilutions (1:3.4) of a 2 mM stock solution in a clear, 384-well microtiter plate (Greiner Bio-One, Frickenhausen, Germany). From there, 50 nl were transferred in a dark test plate (Greiner Bio-One, Frickenhausen, Germany). […] This was followed by a 10-minute incubation step at 22° C. for pre-equilibration of the putative complex between His-BCL-XL and the compounds.
The mixture was incubated in the dark for one hour at 22° C. and then overnight at 4° C. The formation of BCL-XL/Bad complexes was determined by measuring the resonance energy transfer of the anti-His- Eu-cryptate antibody to the streptavidin-XL665 present in the reaction.
The resulting data (ratio) were normalized, taking 0% inhibition as the mean value of control measurements (usually 32 data points) where all reagents were included. In this case 50 nl DMSO were used instead of compounds. […] IC50 values were determined by regression analysis based on a 4 parameter equation (minimum, maximum, IC50, Hill; Y=Max+(Min−Max)/(1+(X/IC50)^Hill) using the Screener Software (Genedata).
In general terms: TR-FRET usually uses a lanthanide donor and a delayed reading to cut background.

For data set [1], the target named is full length endogenous MCL1 protein (Homo sapiens (Human), UniProt Q07820). Briefly: PIxEL: protein-protein interaction in permeabilized cells by ELISA (Assay 5). It is filed as cell-based. The settings on record: permeabilized RKO cells, biotin-BIM BH3 peptide, read-out: PIxEL IC50 (median). The procedure:
PIxEL: Protein-Protein Interaction in Permeabilized Cells by ELISA
Most MCL1 protein molecules are localized at the mitochondria outer membrane and sequester pro-apoptotic proteins through binding of their BCL2 homology domain 3 (BH3 domain). MEB buffer (150 mM mannitol, 10 mM HEPES pH 7.5, 50 mM KCl, 20 μM EDTA, 20 μM EGTA, 5 mM potassium succinate, 0.1% protease-free BSA (SIGMA) with low dose digitonin (0.002%) permeabilizes plasma membrane while leaves live mitochondria, where MCL1 maintains its native localization and conformation. Unlike biophysical assays (e.g. TR-FRET) that use truncated recombinant MCL1 protein, this assay uses full length endogenous MCL1 protein at mitochondria outer membrane. It measures the interaction between MCL1 protein and biotinylated BIM BH3 peptide. Compounds can compete with BIM BH3 peptide to bind to MCL1 protein. This serum free assay measures the affinity between MCL1 protein and compound in permeabilized cells, therefore it is not affected by serum binding and cell permeability, and can measure the intrinsic compound affinity.
On day 1, RKO colon cancer cell line cells were plated at 0.8 million cells/ml, 100 μl/well in 96-well flat bottom TC plates (Corning). MCL1 antibody (Santa Cruz sc-12756) were diluted at 200 fold (final concentration 1 μg/ml) in carbonate buffer (Thermo Fisher Scientific, pH 9.6), and 50 μl of diluted antibody was added to each well of high bind ELISA plates ([…]). Each plate was tapped to make sure liquid covering entire bottom of wells and incubate at 37° C. overnight.
On the second day, MCL1 antibody was washed from ELISA plate. 250 μl Odyssey® Blocking Buffer (PBS) (Li-Cor) was added to each well, incubated at room temperature for at least 1 hour, then washed once with 250 μl 1×PBST. Plates with RKO cells were gently washed once with 100 μl/well PBS, once with 100 μl/well MEB buffer without digitonin, then 100 μl of MEB buffer with 0.002% digitonin was gently added to each well. Compounds were added with HP Tecan compound dispenser in 3-fold dilution series, highest dose 30 μM, 10-dose per compound in quadruplicates. Biotin-BIM peptide (synthesized by 21st Century) was added with HP Tecan compound dispenser at 0.2 μM immediately after the addition of compounds. Plates were rocked for 1 h at room temperature. Then MEB buffer was aspirated and 50 μl of CHAPS buffer (50 mM Tris-Cl, pH 7.4, 150 mM NaCl, 1% CHAPS, 1 mM EDTA, 1 mM EGTA, complete protease inhibitors (Roche), PhosSTOP (Roche)) was added to each well. […]
On the third day, ELISA plates were washed once with 250 μl 1×PBST. […] Plates were shaken for 1 minute then luminescence was measured by Envision plate reader (HP). […] IC50 was calculated using Graphic Pad PRISM software.
A general note: In an ELISA, binding on a coated surface is turned into a signal by an enzyme label.

The subject of another data set is SUDHL5. Briefly: Induction of caspase-3/7 activity (Assay 4), SUDHL5. The class given is cell-based. The settings on record: SUDHL5 cells. An outline of the steps:
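DLBCL cells treated with compounds for 3 hours at 37° C. Caspase-3/7 activity measured by Caspase-Glo 3/7 luminescence, with medium-only background subtracted.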

The subject of a further data set is SUDHL10. Put plainly: Induction of cytotoxicity (Assay 6), SUDHL10.
[2] abbreviates: 3 hours, Caspase-Glo 3/7, read-out: Caspase SUDHL5 EC50 (median).
Setting [3] is: read-out: Cytotox SUDHL10 IC50 (median), SUDHL10 cells, 5 hours, CellTiter-Glo.

As a reminder, the IC50 is the concentration that gives 50% inhibition. Usually EC50 stands for the concentration at which the effect is half-maximal.

Counter-ions that a name gives are not always drawn. Like-named read-outs stand apart in the source and are kept apart here. Where only a bound is given, the exact number is not on record here.

Sequence of full length endogenous MCL1 protein (Q07820 whole entry): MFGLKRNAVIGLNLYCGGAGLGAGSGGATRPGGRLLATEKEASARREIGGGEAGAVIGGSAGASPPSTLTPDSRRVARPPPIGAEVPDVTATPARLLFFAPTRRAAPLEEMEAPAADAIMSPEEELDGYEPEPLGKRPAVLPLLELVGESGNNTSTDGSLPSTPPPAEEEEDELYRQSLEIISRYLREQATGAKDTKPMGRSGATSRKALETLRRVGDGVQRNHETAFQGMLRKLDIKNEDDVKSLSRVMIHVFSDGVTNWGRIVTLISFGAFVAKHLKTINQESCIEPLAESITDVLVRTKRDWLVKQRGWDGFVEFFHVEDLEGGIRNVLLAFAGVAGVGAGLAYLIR
Protocol for SUDHL10: Assay 6 Induction of Cytotoxicity Upon Treatment of Cells with Selected Compounds
Therefore, cytotoxicity assays were run in parallel in SUDHL5 and SUDHL10 cells.
The different cell lines were plated in culture medium (RPMI 1640 [GIBCO #22400-089]supplemented with 10% Fetal Bovine Serum) at a density of 3,300 cells in 30 μL/well in a sterile, solid black, flat bottom, polystyrene, TC-treated 384-well microplate (Corning #3571) using Multidrop Combi Reagent Dispenser. As a control, medium without cells was also added to the plate. Cells were incubated in a humidified incubator at 37° C. overnight. […] Rim wells were excluded. The cells were incubated for 5 hours in a humidified incubator at 37° C. After this incubation, 30 μL of CellTiter-Glo® Luminescent Cell Viability reagent (Promega, G7573) was added to each well using the Multidrop Combi Reagent Dispenser, followed by 15 minutes incubation on a shaker at room temperature. Finally, luminescence was read at 0.1 ms, with a gain of 3000 using the PHERAstar FS microplate reader (BMG Labtech).

Regarding `Cc1c2c(nn1C)N(C)CCCCCn1c(C(=O)O)c(CCCOc3cccc4cc(F)ccc34)c3ccc(Cl)c-2c31` (racemic) [Example 74, (rac)-4-chloro-7-{3-[(6-fluoronaphthalen-1-yl)oxy]propyl}-2,3,15-trimethyl-10,11,12,13,14,15-hexahydro-2H-pyrazolo[4′,3′:4,5][1,6]diazacycloundecino[3,2,1-hi]indole-8-carboxylic acid], the IC50 at BCL-XL is above 20000 nM; in data set [1] it was 0.214 µM; in the data set on SUDHL10 (setting [3]) it was 1300 nM. The EC50 with SUDHL5 (setting [2]) is 710 nM.
Turning to `CCc1c2c(nn1C)N(C)CCCCCn1c(C(=O)O)c(CCCOc3cccc4cc(F)ccc34)c3ccc(Cl)c-2c31` (single isomer, unassigned; enantiomer 1) [Example 78, 4-chloro-3-ethyl-7-{3-[(6-fluoronaphthalen-1-yl)oxy]propyl}-2,15-dimethyl-10,11,12,13,14,15-hexahydro-2H-pyrazolo[4′,3′:4,5][1,6]diazacycloundecino[3,2,1-hi]indole-8-carboxylic acid-N-ethylethanamine Salt—Enantiomer 1], the IC50 was above 20000 nM on BCL-XL, 0.037 µM in data set [1] and 700 nM in the data set on SUDHL10 (setting [3]). Further, the EC50 with SUDHL5 (setting [2]) was found to be 400 nM.
As to `Cc1c2c(nn1C)N(C)CCCCCn1c(C(=O)O)c(CCCOc3cccc4ccccc34)c3ccc(Cl)c-2c31` (racemic) [Example 71, (rac)-4-chloro-2,3,15-trimethyl-7-{3-[(naphthalen-1-yl)oxy]propyl}-10,11,12,13,14,15-hexahydro-2H-pyrazolo[4′,3′:4,5][1,6]diazacycloundecino[3,2,1-hi]indole-8-carboxylic acid], the IC50 on BCL-XL was above 20000 nM; in data set [1] (printed in uM) it was above 30 µM; in the data set on SUDHL10 (Homo sapiens, SU-DHL10, 5 h, read-out: Cytotox SUDHL10 IC50 (median), SUDHL10 cells, 5 hours, CellTiter-Glo) it was 2700 nM. In addition, the EC50 with SUDHL5 (Homo sapiens, SU-DHL-5, 3 h, Caspase-Glo 3/7, read-out: Caspase SUDHL5 EC50 (median)) was 690 nM.
Take `Cc1c2c(nn1C)N(C)CCCCCn1c(C(=O)O)c(CCCOc3cccc4cc(F)ccc34)c3ccc(Cl)c-2c31` [Example 75, (+)-4-chloro-7-{3-[(6-fluoronaphthalen-1-yl)oxy]propyl}-2,3,15-trimethyl-10,11,12,13,14,15-hexahydro-2H-pyrazolo[4′,3′:4,5][1,6]diazacycloundecino[3,2,1-hi]indole-8-carboxylic acid-N-ethylethanamine salt]: the IC50 is above 20000 nM on BCL-XL, 0.146 µM in data set [1] and 810 nM in the data set on SUDHL10 (setting [3]). Further, in the data set with SUDHL5 (setting [2]), the EC50 stood at 330 nM.
